Laboratory results taken from US20190054054A1, “Methods reducing or preventing oxidation of high density lipoprotein (HDL)” (Amarin Pharmaceuticals Ireland Limited, priority 2017, published 2019).

Tests used:
[1] = Lipid hydroperoxide (LOOH) formation in cholesterol-enriched model membranes under autoxidation (Example 3); assay type: biochemical; details: EPA to lipids 1:30, C/P mole ratio 0.6:1
Procedure: An experiment was conducted to test EPA in model membranes enriched with PUFAs and cholesterol at levels that reproduce disease or high CV-risk conditions (i.e., hypercholesterolemia). […] Levels of lipid hydroperoxides were also measured in cholesterol-enriched membrane prepared in the absence of EPA as a control. […] CHOD-iodide color reagent (stock) was prepared according to a procedure modified from El-Saadani et […], Goher […], Jurgens G. A spectrophotometric assay for lipid peroxides in serum lipoproteins using commercially available reagent. J. Lipid. […] Membrane samples consisting of DLPC±cholesterol were prepared as follows. […] To ensure spectrophotometric readings within the optimum absorbance range, sample volumes taken for measurement of lipid peroxide formation were adjusted for length of peroxidation and range between 100 and 10 μL. […] Absorbances were measured against a CHOD blank at 365 nm using a Beckman DU-640 spectrophotometer. The CHOD colorimetric assay is based on the oxidation of iodide (I^-) by lipid hydroperoxides (LOOH) and proceeds according to the following reaction scheme: […]3^- The quantity of triiodide anion (I3^-) liberated in this reaction is directly proportional to the amount of lipid hydroperoxides present in the membrane sample.

[2] = Cholesterol domain formation by small angle x-ray diffraction (Example 3); details: PUFA-enriched model membranes, after autoxidation
Procedure: Cholesterol domain peak intensity was calculated from multiple small angle x-ray diffraction measurements, which are directly proportional to domain levels. […] EPA-treated membranes reduced LOOH levels by greater than 90% (728±30 μM) compared to untreated controls (p<0.001).

[3] = system: sdLDL isolated from human plasma; assay: Copper-induced sdLDL oxidation for 1 hour (Example 12); assay type: biochemical; details: 10.0 μM; sdLDL 200 μg/mL; copper-induced oxidation 1 hour
[4] = system: rat renal glomerular endothelial cells; assay: NO and ONOO^− release ex vivo from rat glomerular endothelial cells exposed to oxLDL and high glucose (Example 13); assay type: cell-based; details: oxLDL 11 mg/dL and glucose 300 mg/dL, treatment 1 hr at 10.0 μM
Procedure: Healthy male Wistar Kyoto (WKY) rats, aged 7-9 weeks and weighing 250±20 g, were obtained from inbred colonies (National Institutes of Health, Bethesda, Md.). Animals were housed in a controlled environment that provided food and water ad libitum prior to the study. […] Animals were sacrificed and tissue samples obtained immediately for experimentation. All procedures were conducted in accordance with standard Institutional Animal Care and Use Committee guidelines and conformed to the Guide for the Care and Use of Laboratory Animals published by the US National Institutes of Health.
EPA and DHA were purchased from Sigma-Aldrich (St. Louis, Mo.) and solubilized in ethanol to 1.0 mM under nitrogen atmosphere. […] The calcium ionophore (Cal), A23187, was purchased from Sigma-Aldrich and prepared in aqueous buffer to 1.0 mM. All test compounds were further diluted in ethanol or aqueous buffer as needed.
Venous blood from healthy normolipidemic volunteers was collected into Na-EDTA (1 mg/mL blood) vacuum tubes after a 12-hour fast. […] The LDL fraction was dialyzed for 96 hours against PBS containing 0.3 mM EDTA and stored at 4° C. until experimental use.
LDL was oxidized according to the methods of Huber et al. 16 Briefly, the purified LDL fraction was dialyzed against Tris/NaCl Buffer (50 mM Tris in 0.15 M NaCl, pH 8.0) to remove EDTA. Additional buffer was added to adjust the protein concentration to 30 mg/mL. LDL oxidation was initiated with 20 μM CuSO4 and monitored spectrophotometrically (234 nm) over a period of 24 hours until complete. The oxLDL was then dialyzed at 4° C. with 4 L Tris buffer, filtered with a 0.22 µm filter, and stored under nitrogen at 4° C.
Immediately after sacrificing the rats, kidneys were removed, cut into […] sections and transferred to a separate organ chamber containing Dulbecco's phosphate buffered saline ([…]) and […] glucose at pH 7.4.
Concurrent measurements of NO and ONOO^− were performed on intact glomerular (cortical zone) endothelial cells using tandem electrochemical nanosensors, as previously described (FIG. 45).
The NO/ONOO^− nanosensor was positioned near the surface of the endothelial cells using a computer-controlled M3301 micromanipulator (x-y-z resolution of 0.2 μm) and microscope (both from World Precision Instruments, Berlin, Germany) fitted with a CD camera. Each analyte was measured from amperograms and standard calibration curves collected under maximum current. […] After establishing a background current, maximal NO and ONOO^− release was induced by injecting Cal into the organ chamber using a nanoinjector (World Precision Instruments, Berlin Germany). Changes in current (proportional to the molar concentrations of NO or ONOO^− released) were monitored continuously immediately following Cal stimulation.
Data are presented as mean+standard deviation (SD) for (N) separate samples or experiments. Differences between groups were analyzed using the unpaired, two-tailed Student's t-test (for comparisons between only two groups) or ANOVA followed by Student-Newman-Keuls multiple comparisons post hoc analysis (for comparisons between three or more groups). Only differences with probability values less than 0.05 were considered significant.

CC/C=C\C/C=C\C/C=C\C/C=C\C/C=C\CCCC(=O)O [EPA, cis-5,8,11,14,17-eicosapentaenoic acid]
LOOH level ([1]; after autoxidation 72 hours): 728 ± 30 µM | reduction of LOOH levels compared to untreated controls ([1]; autoxidation 37° C., 72 hours): greater than 90% | cholesterol crystalline domain formation [2]: inhibits cholesterol crystalline domain formation | reduction of sdLDL oxidation compared to vehicle treatment alone [3]: > 90% | NO/ONOO^− Ratio [4]: 1.08 | increase in NO release ([4]; versus vehicle): 205% | increase of the NO/ONOO^− ratio ([4]; versus vehicle): more than 4 fold | reduction of ONOO^− release ([4]; versus vehicle): 27%
